From patent US20070105836A1, “Prodrugs of muscarinic agonists and methods of treatment of neuropsychiatric disorders” (priority 2005, published 2007)

Assay: Conversion of prodrugs to NDMC in vivo (plasma and brain levels of NDMC by LC-MS/MS after oral dosing)
Experimental: Male, Sprauge-Dawly rats (200-225 grams, Harlan, San Diego, Calif.) implanted with jugular vein cannulae served as experimental subjects. Rats were fasted for approximately 16 hours and then dosed orally with one of several test compounds. All test compounds were administered at a fixed dose of 10 mg/kg (freebase) in a volume of 1 mL/kg. Venous blood samples were collected 0, 30, 60 and 120 min following test compound administration. Samples were placed into heparinized tubes and centrifuged to obtain plasma. Additionally, whole brains were harvested at the 120 min time point in order to determine brain levels of test compounds. Plasma samples, brains and any remaining dosing solutions were stored at −80° C. until analyzed.
The thawed plasma samples were processed by protein precipitation using acetonitrile. Following centrifugation the supernatant was diluted appropriately and transferred to the analysis deep well plate for analysis. […]
Calibration samples and samples were analyzed by LC-MS/MS using positive electrospray ionization. […]
Samples were analyzed using multiple reaction monitoring (MRM). […]
4.0.1 and the area under the curve (AUC0-120) of NDMC was calculated. In vivo conversion to NDMC was calculated from the dose-normalized ratio of AUC0-120 of NDMC following administration of pro-drug and NDMC, respectively.

SMILES: Clc1ccc2c(c1)N=C(N1CCNCC1)c1ccccc1N2 [NDMC, N-desmethylclozapine]
- Plasma AUC(0-120 min) of NDMC (male Sprague-Dawley rats, fasted, oral 10 mg/kg (freebase) of compound administered, plasma 0-120 min): 1.298 µM·h
- Mean brain concentration of NDMC at 120 min (SD) (rats, oral 10 mg/kg, whole brain at 120 min, n = 3): 255 (56) nmol/(kg)
